Test results reported in ChEMBL document CHEMBL1135347, “Spirocyclic NK(1) antagonists II: [4.5]-spiroethers” (Bioorg Med Chem Lett, 2002).

Experiments:
Gerbillinae [1] = assay: Ability to inhibit the foot tapping in gerbil immediately following central infusion of GR-73632 (agonist), 5 min after intravenous administration of compound; format: functional; settings: read-out: ID50 (the source's name)
Substance-P receptor = Substance-P receptor (Homo sapiens, UniProt P25103); assay: Displacement of [125I]-labeled substance P from the cloned human Tachykinin receptor 1 expressed in CHO cells; format: cell-based
Sequence of Substance-P receptor (P25103 whole entry): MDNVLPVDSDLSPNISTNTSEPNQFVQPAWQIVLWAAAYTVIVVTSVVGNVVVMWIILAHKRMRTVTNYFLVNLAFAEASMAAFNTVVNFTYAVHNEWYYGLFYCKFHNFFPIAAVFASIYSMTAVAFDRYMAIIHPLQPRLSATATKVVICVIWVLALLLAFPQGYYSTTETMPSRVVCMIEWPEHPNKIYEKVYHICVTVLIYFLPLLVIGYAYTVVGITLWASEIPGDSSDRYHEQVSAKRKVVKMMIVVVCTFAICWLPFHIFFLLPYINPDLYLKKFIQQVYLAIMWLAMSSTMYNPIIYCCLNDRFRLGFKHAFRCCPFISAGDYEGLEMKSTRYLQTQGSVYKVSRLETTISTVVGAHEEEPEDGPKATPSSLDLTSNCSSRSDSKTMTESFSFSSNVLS

Mustela putorius furo [2] = assay: Compound was tested for inhibition of emetic response in ferret by administering perorally following emetogen challenge after 60 min (po); format: functional
Mustela putorius furo [3] = assay: Compound was tested for inhibition of emetic response in ferret by administering intravenously following emetogen challenge after 3 min (iv); format: functional
Gerbillinae [4] = assay: Ability to inhibit the foot tapping in gerbil immediately following central infusion of GR-73632 (agonist), 5 min after intravenous administration of compound (1 mg/kg); format: functional
[5] = Half-life in rat; format: ADME, organism-based; settings: in vivo
[6] = Half-life in Dog; format: ADME, organism-based, Canis lupus familiaris; settings: in vivo
[7] = Bioavailability in dog; format: ADME, organism-based, Canis lupus familiaris; settings: in vivo
[8] = Bioavailability in rat; format: ADME, organism-based; settings: in vivo

| Structure (SMILES) | ED50 (Gerbillinae [1]) [mg/kg] | IC50 (Substance-P receptor) [nM] | also measured |
| --- | --- | --- | --- |
| COc1ccc(-n2nnnc2C(F)(F)F)cc1C1=CC2(CCCN[C@H]2c2ccccc2)OC1 (stereo not given in full) | 0.1 | 0.08 |  |
| c1ccc([C@H]2COC3(CCCN[C@H]3c3ccccc3)C2)cc1 (stereo not given in full) |  | 133 |  |
| COc1ccc(OC(F)(F)F)cc1[C@H]1COC2(CCCN[C@H]2c2ccccc2)C1 (stereo not given in full) | 0.3 | 0.3 | ID90 (Mustela putorius furo [2]): 3 mg/kg; ID90 (Mustela putorius furo [3]): 1 mg/kg |
| COc1ccc(-n2nnnc2C(F)(F)F)cc1[C@H]1COC2(CCCN(Cc3n[nH]c(O)n3)C2c2ccccc2)C1 (stereo not given in full) |  | 0.1 | Inhibition (Gerbillinae [4]): 6% |
| COc1ccc(-n2nnnc2C(F)(F)F)cc1[C@H]1COC2(CCCNC2c2ccccc2)C1 (stereo not given in full) | 0.1 | 0.11 | half-life [5]: 1.7 h; ID90 (Mustela putorius furo [2]): 1 mg/kg; half-life [6]: 2.7 h; bioavailability [7]: 79%; bioavailability [8]: 16%; ID90 (Mustela putorius furo [3]): 0.2 mg/kg |
| COc1ccc(OC(F)(F)F)cc1C1=CC2(CCCNC2c2ccccc2)OC1 (stereo not given) | 0.2 | 0.35 |  |
| COc1ccccc1[C@H]1COC2(CCCNC2c2ccccc2)C1 (stereo not given in full) |  | 6.5 |  |
| COc1ccc(OC(F)(F)F)cc1[C@H]1COC2(CCCN(Cc3nc[nH]n3)C2c2ccccc2)C1 (stereo not given in full) |  | 0.89 | Inhibition (Gerbillinae [4]): 45% |
| COc1ccc(-n2nnnc2C(F)(F)F)cc1[C@H]1COC2(CCCN(Cc3c[nH]cn3)C2c2ccccc2)C1 (stereo not given in full) | 0.5 | 0.11 |  |
| COc1ccccc1C1=CC2(CCCNC2c2ccccc2)OC1 (stereo not given) |  | 49 |  |
